Measured values reported in patent US8084502B2, “Use of agmatine for protection of retinal ganglion cells” (priority 2007, dated 2011).

How the values were obtained:
Type in all cases: cell-based, rat
RGC-5 [1] = experiment: Hoechst 33342 and PI staining after hypoxia; settings: hypoxia 48 hours; 100 μM of agmatine or 10 ng/mL of BDNF
Method: The RGC-5 cell line, which is a RGC line developed from post-natal Sprague-Dawley rats, was grown in modified Dulbecco's Modified Eagle's Medium (DMEM; Gibco) supplemented with 10% of heat inactivated fetal bovine serum (Gibco) and 100 U/mL of penicillin and 100 μg/mL of streptomycin (Gibco). The cells were passaged every 2 to 3 days, and the cultures incubated at 37° C. in 5% of CO2 and air. […] For all experiments, cells were used at an 80% confluence. Cultures were transferred into a closed hypoxic chamber (Form a Scientific Co.) in which oxygen level (5% of O2, 5% of CO2, 90% of N2) and temperature (37° C.) were controlled. After washing twice with deoxygenated serum-free DMEM, cells were maintained in the hypoxic chamber. Control cells were not exposed to hypoxia. Agmatine or BDNF were added to the culture medium at the start of injury as indicated. Apoptotic or necrotic cell death was characterized by the use of Hoechst 33342 and PI double staining. Cells were stained with 10 μg/mL of Hoechst 33342 and 10 μg/mL of PI at 37° C. for 30 minutes. After washing twice with phosphate buffered saline (PBS), cells were imaged with a digital camera attached to a fluorescence microscope.

RGC-5 [2] = experiment: LDH assay, hypoxia-induced cell death; settings: for LDH release: relative to maximum LDH release = 100; for concentration at which cell death was reduced significantly (LDH assay): preliminary studies
Method: The RGC-5 cell line, which is a RGC line developed from post-natal Sprague-Dawley rats, was grown in modified Dulbecco's Modified Eagle's Medium (DMEM; Gibco) supplemented with 10% of heat inactivated fetal bovine serum (Gibco) and 100 U/mL of penicillin and 100 μg/mL of streptomycin (Gibco). The cells were passaged every 2 to 3 days, and the cultures incubated at 37° C. in 5% of CO2 and air. […] For all experiments, cells were used at an 80% confluence.
Cultures were transferred into a closed hypoxic chamber (Form a Scientific Co.) in which oxygen level (5% of O2, 5% of CO2, 90% of N2) and temperature (37° C.) were controlled. After washing twice with deoxygenated serum-free DMEM, cells were maintained in the hypoxic chamber. Control cells were not exposed to hypoxia. Agmatine or BDNF were added to the culture medium at the start of injury as indicated.
Cell viability was quantified by measurement of LDH released by injured cells after hypoxic or normoxic culture for 12, 24, and 48 hours. LDH release is expressed as a value relative to the value of 100, which represents the maximum LDH release that occurred after freezing of each culture at −70° C. overnight and rapid thawing, which induces nearly complete cell damage. All experiments were performed in at least quadruplicate and repeated at least eight times using cell cultures derived from different platings. The preliminary studies with the LDH assay tested agmatine concentrations from 10 μM to 1 mM and BDNF concentrations from 5 ng/mL to 100 ng/mL.

[3] = test system: Total MAPKs (JNK, ERK, and p38); experiment: Western blot, total MAPKs in hypoxic RGC-5
Method: (§1) The RGC-5 cell line, which is a RGC line developed from post-natal Sprague-Dawley rats, was grown in modified Dulbecco's Modified Eagle's Medium (DMEM; Gibco) supplemented with 10% of heat inactivated fetal bovine serum (Gibco) and 100 U/mL of penicillin and 100 μg/mL of streptomycin (Gibco). The cells were passaged every 2 to 3 days, and the cultures incubated at 37° C. in 5% of CO2 and air. […] For all experiments, cells were used at an 80% confluence. Cultures were transferred into a closed hypoxic chamber (Form a Scientific Co.) in which oxygen level (5% of O2, 5% of CO2, 90% of N2) and temperature (37° C.) were controlled. […] The protein concentrations in the resultant supernatants were measured with the Bradford reagent, and equal amounts of protein (40 μg) were boiled in Laemmli sample buffer, followed by being resolved by 10 or 15% SDS-PAGE. The proteins were transferred to polyvinylidene fluoride membranes (Immobilon; Millipore, Billerica, Mass.) and then probed overnight with antibodies against JNK, ERK p44/42, p38, NF-κB p65, phospho-JNK, phospho-ERK p44/42, phospho-p38, phospho-NF-κB, (3-actin and histone 3 as indicated (diluted 1:1000). The immunoreactive bands were detected with horseradish peroxidase-conjugated secondary antibodies and visualized by enhanced chemiluminescence.

ERK = experiment: Western blot, phospho-ERK in hypoxic RGC-5; settings: agmatine 100 μM, BDNF 10 ng/mL
Method: as §1

RGC-5 [4] = experiment: Annexin-V assay (flow cytometry), hypoxia-induced apoptosis; settings: agmatine 100 μM or BDNF 10 ng/ml
Method: The RGC-5 cell line, which is a RGC line developed from post-natal Sprague-Dawley rats, was grown in modified Dulbecco's Modified Eagle's Medium (DMEM; Gibco) supplemented with 10% of heat inactivated fetal bovine serum (Gibco) and 100 U/mL of penicillin and 100 μg/mL of streptomycin (Gibco). The cells were passaged every 2 to 3 days, and the cultures incubated at 37° C. in 5% of CO2 and air. […] For all experiments, cells were used at an 80% confluence. Cultures were transferred into a closed hypoxic chamber (Form a Scientific Co.) in which oxygen level (5% of O2, 5% of CO2, 90% of N2) and temperature (37° C.) were controlled. After washing twice with deoxygenated serum-free DMEM, cells were maintained in the hypoxic chamber. Control cells were not exposed to hypoxia. Agmatine or BDNF were added to the culture medium at the start of injury as indicated. The percentage of cells actively undergoing apoptosis was determined by flow cytometry using the Annexin V-FITC Apoptosis Detection Kit (BD Biosciences, Cat no. 556547) according to the manufacturer's instructions. Briefly, cells were harvested and resuspended in binding buffer (10^6 cells/mL). 10^5 cells were mixed with 5 μL of annexin V-FITC and 5 μL of PI. After incubating at room temperature for 15 minutes in the dark, analysis was performed by flow cytometry.

Compound | RGC loss (Hoechst-positive / PI-positive cells) (RGC-5 [1]) | LDH release (RGC-5 [2]; hypoxia 48 hours, 10 ng/mL of BDNF) [%] | LDH release (RGC-5 [2]; hypoxia 48 hours, 50 ng/mL of BDNF) [%] | LDH release (RGC-5 [2]; hypoxia 48 hours, 100 ng/mL of BDNF) [%] | concentration at which cell death was reduced significantly (LDH assay) (RGC-5 [2]; tested 5 ng/mL to 100 ng/mL) [ng/mL] | Total MAPKs (JNK, ERK, and p38) and β-actin [3] | expression of phospho-ERKs (ERK) | proportion of apoptotic cells (RGC-5 [4]; hypoxia 12 hours) | proportion of apoptotic cells (RGC-5 [4]; hypoxia 24 hours) | suppression of LDH release compared with BDNF (RGC-5 [2]; hypoxia 48 hours, 100 μM of agmatine vs 10 ng/mL BDNF, P<0.001) | LDH release (RGC-5 [2]; hypoxia 48 hours, 100 μM of agmatine) [%] | LDH release (RGC-5 [2]; hypoxia 48 hours, 500 μM of agmatine) [%] | concentration at which cell death was reduced significantly (LDH assay) (RGC-5 [2]; tested 10 μM to 1 mM) [µM]
BDNF: recombinant human BDNF (R&D System), well-known protective neurotrophin for RGCs, used as comparator | RGC loss was prevented | 30.10 | 33.67 | 36.06 | ≥ 10 | no significant changes | completely blocked the expression of phospho-ERKs after exposure to hypoxia for 3 and 6 hours, but had no effect thereafter | no significant difference | significant decrease in apoptotic cells |  |  |  | 
N=C(N)NCCCCN [agmatine] | RGC loss was prevented |  |  |  |  | no significant changes | did not significantly affect | no significant difference | significant decrease in apoptotic cells | more effective in suppressing LDH release than 10 ng/mL BDNF | 25.60 | 27.09 | ≥ 100
